How the values were obtained:
[1] = target: T1, Human adenosine A1 receptor (Homo sapiens, UniProt P30542); test: Adenosine A1 receptor binding experiment (3H-CCPA displacement, CHOK1 membrane specimen); conditions: calculated from IC50 by Cheng-Prusoff's expression; 3H-CCPA binding, membranes of CHOK1 cells over-expressing human A1, 30° C., 120 minutes; read-out: inhibition constant (Ki value)
T1 construct: expressed in transfected cells; host or cells: CHOK1 cells (membrane specimen)
T1 sequence (P30542 1-326): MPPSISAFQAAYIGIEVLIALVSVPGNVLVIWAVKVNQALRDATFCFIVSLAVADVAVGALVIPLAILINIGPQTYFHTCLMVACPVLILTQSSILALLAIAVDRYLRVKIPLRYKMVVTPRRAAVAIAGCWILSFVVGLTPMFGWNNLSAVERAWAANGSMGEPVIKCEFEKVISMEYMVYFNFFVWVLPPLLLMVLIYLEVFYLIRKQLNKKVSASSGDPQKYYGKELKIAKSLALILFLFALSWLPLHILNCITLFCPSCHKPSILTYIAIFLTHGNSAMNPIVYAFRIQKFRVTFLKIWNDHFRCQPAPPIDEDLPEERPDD
Experimental: Human adenosine A1 receptor cDNA was subjected to an over-expression in CHOK1 cells and its membrane specimen was suspended in a 20 mM HEPES buffer (containing 10 mM MgCl2 and 100 mM NaCl; pH 7.4) to make the protein concentration of 66.7 μg/mL. To 0.45 mL of this membrane specimen suspension were added 0.025 mL of tritium-labeled 60 nM chlorocyclopentyl adenosine (^3H-CCPA, manufactured by NEN corporation) and 0.025 mL of a solution of the compound of the present invention. The mixture was allowed to stand at 30° C. for 120 minutes, subjected to a quick suction on a glass fiber filter (GF/B; manufactured by Whatman) and immediately washed with 5 mL of water-cooled 50 mM Tris-HCl buffer twice. After that, the glass fiber filter was transferred to a vial bottle, a scintillator was added, and the radioactivity on the filter was measured by a liquid scintillation counter. […]
At this point, total binding amount is a ^3H-CCPA binding radioactivity in the absence of the compound of the present invention, non-specific binding amount is a ^3H -CCPA binding radioactivity in the presence of 100 μM of RPIA ([R]-[1-methyl-2-phenylethyl]adenosine), and binding amount in the presence of the compound of the present invention is a ^3H-CCPA binding radioactivity in the presence of the compound of the present invention of various concentrations.

[2] = target: T2, Human adenosine A2B receptor (Homo sapiens, UniProt P29275); test: Inhibition of NECA-stimulated cAMP production in A2B receptor expressed cells; type: cell-based; conditions: CHOK1 cells over-expressing human A2B; 30 nM NECA; in the presence of Ro-20-1724; cAMP enzyme immunoassay; read-out: 50% inhibitory concentration (IC50) for NECA-stimulated cAMP production
T2 construct: expressed in transfected cells; host or cells: CHOK1 cells
T2 sequence (P29275 1-332): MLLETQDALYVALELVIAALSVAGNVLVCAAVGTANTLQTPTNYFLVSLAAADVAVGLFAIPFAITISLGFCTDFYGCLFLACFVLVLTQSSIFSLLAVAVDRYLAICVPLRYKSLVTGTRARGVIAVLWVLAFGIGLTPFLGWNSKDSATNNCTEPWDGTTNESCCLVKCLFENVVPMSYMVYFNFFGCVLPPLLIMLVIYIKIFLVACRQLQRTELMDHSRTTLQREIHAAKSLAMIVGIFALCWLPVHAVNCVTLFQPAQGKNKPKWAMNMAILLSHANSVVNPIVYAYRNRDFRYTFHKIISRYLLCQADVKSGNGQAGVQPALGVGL
Experimental: Human adenosine A2B receptor was over-expressed in CHOK1 cells. The cells were uniformly placed on a 24-well plate at the rate of 1.5×10^5 cells/well, incubated for one night and then used for the experiments. The inhibition rate of the compound of the present invention for the amount of cAMP produced by stimulation of 30 nM of 5′-N-ethylcarboxyamideadenosine (NECA; manufactured by Sigma corporation) was evaluated as affinity of the compound of the present invention to the A2B receptor. Thus, after washing adherent cells with 2 mL/well of a Krebs-Ringer buffer (containing 0.1 % BSA; pH7.4) twice, a pre-incubation was carried out at 0.5 mL/well for 30 minutes. After that, […] of a mixed solution containing NECA and the compound of the present invention were added in the presence of Ro-20-1724 (manufactured by RBI corporation) which is a phosphodiesterase inhibitor. 15 minutes after pre-incubation, the reaction was stopped by adding 0.1N HCl to the reaction solution. Measurement of cAMP was carried out using a cAMP enzyme immunoassay kit manufactured by Amersham corporation. Calculation of the inhibition rate of the compound of the present invention to the NECA-stimulated cAMP production was carried out by the following expression. […]

- Ki [1]: 157 nM
- IC50 [2]: 72.7 nM
Structure (SMILES): Cn1cc(-c2c(O)nc(N)nc2-c2ccco2)ccc1=O [the compound of the present invention, 5-[2-amino-4-(2-furyl)-6-hydroxypyrimidin-5-yl]-1-methylpyridin-2(1H)-one]
